Measurements as given in patent publication US20180193401A1, “ANTI-OBESITY COMPOSITION COMPRISING NATURAL COMPLEX” (MEGABIOWOOD CO., LTD., priority 2017, published 2018).
Values joined by “and” are separate entries in the source; they are usually repeats but may differ in a detail not shown here. Identical values can stand only once. Marks after values point to notes of the source that are not given here.

Experiments:
[1] = test system: 3T3-L1 adipocytes; experiment: Analysis of leptin production (ELISA kit); type: cell-based; details: 100 μg/mL; differentiated adipocytes 0.50±0.01
Procedure: An adipocyte 3T3-L1 cell line was purchased from the American Type Culture Collection (Rockville, Md., USA), and cultured at 37° C. in a DMEM (Invitrogen, USA) medium supplemented with 10% fetal bovine serum (FBS; Invitrogen, USA) in a 5% CO2 incubator. To avoid contamination, 100 units/mL of penicillin and 100 μg/mL of streptomycin (Gibco/BRL, USA) as antibiotics were added thereto, and the cells were treated with trypsin-EDTA (Gibco/BRL, USA), and sub-cultured. The medium was replaced with a fresh one every two or three days. For treatment with the extract complex, the cultured 3T3-L1 cell line was transferred to a 24-well plate (Corning, USA) at a density of 1×10^5 cells/well. After the medium was replaced with a FBS-free medium the next evening, the 3T3-L1 cell line was treated for 16 hours. Leptin is a hormone that is produced by an obesity gene in adipocytes. Thus, a blood leptin concentration has been widely used for obesity research as an indicator of body fat mass because a secretion rate of leptin increases with an increase in fat accumulated in the adipocytes. […] 3T3-L1 adipocytes were treated with each of the 30% ethanol extract complex of bamboo leaves plus quince and the hot-water extract complex of bamboo leaves plus quince at concentrations of 50 and 100 μg/mL, and a concentration of leptin was then measured using an ELISA kit.

[2] = test system: 3T3-L1 adipocytes; experiment: Analysis of glycerol release; type: cell-based; details: 100 μg/mL; differentiated adipocytes 18.10±2.28
Procedure: (§1) An adipocyte 3T3-L1 cell line was purchased from the American Type Culture Collection (Rockville, Md., USA), and cultured at 37° C. in a DMEM (Invitrogen, USA) medium supplemented with 10% fetal bovine serum (FBS; Invitrogen, USA) in a 5% CO2 incubator. To avoid contamination, 100 units/mL of penicillin and 100 μg/mL of streptomycin (Gibco/BRL, USA) as antibiotics were added thereto, and the cells were treated with trypsin-EDTA (Gibco/BRL, USA), and sub-cultured. The medium was replaced with a fresh one every two or three days. For treatment with the extract complex, the cultured 3T3-L1 cell line was transferred to a 24-well plate (Corning, USA) at a density of 1×10^5 cells/well. After the medium was replaced with a FBS-free medium the next evening, the 3T3-L1 cell line was treated for 16 hours. 3T3-L1 adipocytes were treated with each of the 30% ethanol extract complex of bamboo leaves plus quince and the hot-water extract complex of bamboo leaves plus quince at concentrations of 50 and 100 μg/mL to measure an amount of glycerol production. An amount of glycerol production in undifferentiated pre-adipocytes was 2.46±1.34 μg/mL, an amount of glycerol production in differentiated adipocytes was 18.10±2.28 μg/mL, and an amount of glycerol production in the positive control was 32.09±1.23 μg/mL when HCA was present at a concentration of 100 μg/m L.

[3] = test system: 3T3-L1 adipocytes; experiment: Analysis of triglyceride content; type: cell-based; details: 100 μg/mL; differentiated adipocytes 126.2±1.25
Procedure: as §1, with “measure” for “measure an amount of glycerol production. An amount of glycerol production in undifferentiated pre-adipocytes was 2.46±1.34 μg/mL, an amount of glycerol production in differentiated adipocytes was 18.10±2.28 μg/mL, and an amount of glycerol production in the positive control was 32.09±1.23 μg/mL when HCA was present at”, “triglycerides.” for “100 μg/m L.”

[4] = test system: C57BL/6J mice; experiment: Body weight gain, food intake and food efficiency ratio, 8-week oral administration; type: in vivo; details: HD (high-fat diet), HCA 300 mg/kg BW/day oral, 8 weeks
Excerpt: (§2) Four-week-old male C57BL/6J mice were purchased from Central Lab-Animal Inc. (Seoul, Korea), adapted for a week to a normal diet in which fats accounted for 10% of the total calories, and then used for experiments. To induce obesity, a high fat diet in which fats accounted for 60% of the total calories was supplied to all groups other than a normal diet (ND) group and an ND sample group, and a normal diet in which fats accounted for 10% of the total calories was freely supplied to the ND group and the ND sample group for a total of 8 weeks. The experimental groups were divided into a total of 6 groups: a ND group, a high fat diet (HD) group, a positive control (HCA), a sample group (ND+JMW) in which a hot-water extract complex of bamboo leaves plus quince was administered to the ND group, and sample-efficacy groups (HD+JMW200 and HD+JMW400) in which a two-fold concentration of the hot-water extract complex of bamboo leaves plus quince was administered to the high fat diet group. In this case, ten mice were assigned to each group using a randomized block design, and used for experiments. To check an anti-obesity effect of the sample extract for 8 weeks (week 1 to 8) after a one-week adaptation, the test material was dissolved in distilled water, and orally administered to the positive control, the ND sample group, and the HD sample-efficacy groups once a day at a concentration of 300 mg/kg BW/day, 400 mg/kg BW/day, 200 mg/kg BW/day, and 400 mg/kg BW/day, respectively. Also, distilled water was administered to the ND group and the HD group. After laboratory animals were adapted for a week, the hot-water extract complex of bamboo leaves plus quince was orally administered to the C57BL/6J mice for 8 weeks to observe a change in body weight.

[5] = test system: C57BL/6J mice; experiment: Weight of adipose tissues (EAT, BAT); type: in vivo; details: HD (high-fat diet), HCA 300 mg/kg BW/day oral, 8 weeks
Excerpt: as §2, with “[…] The weights” for “To check an anti-obesity effect”, “adipose tissues in” for “sample extract for 8 weeks (week 1 to 8) after a one-week adaptation,”, “the” for “the test material was dissolved in distilled water, and orally administered to the positive control, the ND sample group, and the HD sample-efficacy groups once a day at a concentration of 300 mg/kg BW/day, 400 mg/kg BW/day, 200 mg/kg BW/day, and 400 mg/kg BW/day, respectively. Also, distilled water was administered to the ND group and the HD group. After”, “treated with” for “were adapted for a week,”, “were measured.” for “was orally administered to the C57BL/6J mice for 8 weeks to observe a change in body weight.”

[6] = test system: C57BL/6J mice; experiment: Analysis of blood lipids; type: in vivo; details: HD (high-fat diet), HCA 300 mg/kg BW/day oral, 8 weeks
Excerpt: as §2, with “An amount of blood lipids (triglycerides and cholesterol) was measured in the” for “After”, “treated with” for “were adapted for a week,”, “quince.” for “quince was orally administered to the C57BL/6J mice for 8 weeks to observe a change in body weight.”

O=C(O)CC(O)(C(=O)O)C(O)C(=O)O (stereo not shown) [HCA, hydroxycitric acid]
amount of leptin production [1]: 0.39 ± 0.01 ng/mL
amount of glycerol production [2]: 32.09 ± 1.23 µg/mL
triglyceride content [3]: 98.01±1.24 μg/mg protein
Final body weight [4]: 33.50 ± 3.58^b g
Food intake [4]: 3.79 g/day and 3.79 ± 0.05^c g/day
Weight gain [4]: 12.83 g/8 weeks and 12.83 ± 0.94^b g/8 weeks
BAT (brown adipose tissue) weight [5]: 0.09 ± 0.02^b g
EAT (epididymal adipose tissue) weight [5]: 1.70 g and 1.70 ± 0.14^b g
HDL-cholesterol [6]: 75.66 mg/dL and 75.66 ± 8.11^b mg/dL
LDL-cholesterol [6]: 131.06 ± 6.82^b mg/dL
Total cholesterol (blood) [6]: 241.53 mg/dL and 241.53 ± 8.87^b mg/dL
Triglyceride (blood) [6]: 174.08 mg/dL and 174.08 ± 3.49^b mg/dL
LDL-cholesterol ([6]; listed as positive control): 131.06 mg/dL
